Reference: US20030032793A1, “Gene of PGT of human brain type” (priority 1999, published 2003)

Tested on: Rat Cerebral Cortex Neuronal Culture
Assay: Apoptosis induction by Amyloid β peptide (Aβ 25-35) in PGT 40/PGT 70-transfected neurons and inhibiting action of PGE 1
Assay type: cell-based
Settings: Aβ 25-35 exposure 24 hours
Text: PGT 40 or PGT 70 cDNA was inserted into pTracer-SV 40 vector (Invitrogen) to construct an expression vector. PGT 40 means the brain-type PGT of the present invention. PGT 70 means the lung-type PGT which was disclosed in the prior art literature.
Fetus of 17 days age (viviparous) was ejected from pregnant rat of SD strain and, in an ice-cold L-15 medium (Invitrogen), cerebral cortex was collected from brain of the fetus. After it was finely cut by scissors, cells were dispersed using a kit for dispersing the neurons (Sumilon), sowed on a polyethyleneimine-coated cover glass (diameter: 12 mm; manufactured by Asahi Technoglass) in a living cell density of 1.6×10^5 cells/cm^2 and cultured (at 37° C. with 5% of CO2). […]
After the cells were fixed (at room temperature for 5 minutes) with a 10% neutral buffered formalin solution, they were stained with 0.01 mg/mL Hoechst 33342 (being dissolved in PBS(−); Molecular Probe) and, under a fluorescent microscope, […] total cell numbers and apoptosis cells (the cells which were aggregated and fragmented by chromatin) were counted in random 20 fields for one example whereupon the apoptosis-positive cell percentage (%) was calculated. […]

With CCCCC[C@H](O)/C=C/[C@H]1[C@H](O)CC(=O)[C@@H]1CCCCCCC(=O)O [PGE1] the “action of PGE1 on Aβ-induced apoptosis” value (PGE 1 0.01, 0.1, 1 and 10 μM added together with Aβ) was “anti-apotosis action”.

With “PGT40: the brain-type PGT (prostaglandin transporter) of the present invention, SEQ ID NO: 3, expressed from pTracer-SV 40 vector” the “effect of PGT expression on anti-apoptosis action of PGE1 (apoptosis-positive cell percentage / apoptosis inhibiting rate)” value (neurons transfected with PGT expression vector, PGE 1 0.01, 0.1, 1 and 10 μM, Hoechst 33342 staining) was “accelerate anti-apotosis action of PGE1”.
